These results are taken from patent US20240246920A1, “TRIAZOLE DERIVATIVES WITH ANTIFUNGAL ACTIVITY” (King's College London, priority 2020, published 2024).

Each structure is given as a SMILES string. In brackets after ≈: the same amount, converted by molar mass. Read-outs that look alike come from different tables or passages of the source. Where only a bound is given, the exact number is not on record here.

The subject of experiment [1] is C. auris 8971. Briefly: Candida panel MIC, serial dilution in 96-well plates. The experiment is classed as cell-based, Candida auris. The gist of the method: (§1)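 Growth inhibition was scored by OD530 nm after a 24 h, 37° C incubation of C. auris (0.5-5×10^5/mL) with compound dilutions in buffered RPMI glucose medium.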
The test system of experiment [2] is C. auris 8977. The experiment is described as above. The experiment is classed as cell-based, Candida auris. The gist of the method:
as §1

Experiment [3] has as its system C. auris 8984. Described as above. The experiment is classed as cell-based, Candida auris. The essentials:
as §1

For experiment [4], the system named is C. albicans 3363. Description: Candida albicans panel MIC. In kind it is cell-based. The conditions noted are these: Table 6, Candida albicans panel. The essentials: (§2)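 MIC = lowest conc. with ≥50% inhibition vs drug-free fungus control, OD530 read. Serial dilution 128–0.25 μg/mL in RPMI/MOPS/2% glucose pH 7.0; 0.5-5×10^5 cells/mL; 37° C, 24 h.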
The subject of experiment [5] is C. albicans 3645. Briefly: Candida albicans panel MIC. In kind it is cell-based. The conditions noted are these: Table 6, Candida albicans panel. The gist of the method: as §2
Experiment [6] deals with C. albicans 3880. Description: Candida albicans panel MIC. The experiment is classed as cell-based. The conditions noted are these: Table 6, Candida albicans panel. The gist of the method: as §2
The subject of experiment [7] is C. albicans 3881. Briefly: Candida albicans panel MIC. In kind it is cell-based. The conditions noted are these: Table 6, Candida albicans panel. The gist of the method:
as §2

Experiment [8] deals with C. albicans 3882. Briefly: Candida albicans panel MIC. The conditions noted are these: Table 6, Candida albicans panel. The experiment is classed as cell-based. The gist of the method: as §2
Experiment [9] relates to C. albicans 3990. Description: Candida albicans panel MIC. The experiment is classed as cell-based. The conditions noted are these: Table 6, Candida albicans panel. The gist of the method: as §2
Experiment [10] has as its system C. albicans 8112. Briefly: Candida albicans panel MIC. The conditions noted are these: Table 6, Candida albicans panel. The experiment is classed as cell-based. The essentials:
as §2

Experiment [11] has as its system C. auris (e.g. TDG1912, TDG2506 or 8984). Briefly: microbe, parasite or virus in culture. The experiment is classed as cell-based, Candida auris. The conditions noted are these: Candidozyma auris; efflux pump table; read-out: MIC Fluconazole, C. auris (e.g. TDG1912, TDG2506 or 8984).

Turning to `OC(Cn1cncn1)(Cn1cncn1)c1ccc(F)cc1F` [Fluconazole, fluconazole, reference compound], the MIC in experiment [1] (Candidozyma auris, 8971, 24 h, read-out: MIC C. auris 8971) was 16 µg/mL (≈ 52.2 µM); in experiment [1] (Candidozyma auris, 8971, read-out: MIC C. auris 8971), 32 µg/mL (≈ 104 µM); in experiment [2] (Candidozyma auris, 8977, 24 h, read-out: MIC C. auris 8977), 32 µg/mL (≈ 104 µM); in experiment [2] (Candidozyma auris, 8977, read-out: MIC C. auris 8977) it was 16 µg/mL (≈ 52.2 µM); in experiment [3] (Candidozyma auris, 8984, 24 h, read-out: MIC C. auris 8984) it was over 128 µg/mL; in experiment [3] (Candidozyma auris, 8984, read-out: MIC C. auris 8984), over 128 µg/mL. For the same compound, the MIC in [4] was 8 µg/mL (≈ 26.1 µM); in experiment [5], at most 0.125 µg/mL; in experiment [6], 16 µg/mL (≈ 52.2 µM); in experiment [7], 8 µg/mL (≈ 26.1 µM); in experiment [8] it was 16 µg/mL (≈ 52.2 µM); in experiment [9], 8 µg/mL (≈ 26.1 µM). Moreover, the figures for the MIC in [10] and in experiment [11] were 0.125 µg/mL (≈ 0.408 µM) and over 128 µg/mL, respectively.
